Reference: US9969674B2, “MMF-derivatives of ethyleneglycols” (RATIOPHARM GMBH, priority 2014, dated 2018)
Values joined by “and” are separate entries in the source; they are usually repeats but may differ in a detail not shown here. Equal values may be shown once. Where a name gives a salt, the structure may show the parent alone.

Tests used:
[1] = Kinetics of MMF-release during incubation in intestinal fluid of the minipig; type: in vitro ADME, Göttingen SPF minipig; conditions: for release of the second equivalent of MMF / release kinetics of the first equivalent of MMF: diluted minipig small intestinal fluid pH 6.8, 37° C., compared with DMF (FIG. 1); for release kinetics of the first equivalent of MMF: time 0-30 min
Method: Example 7: Investigation and Comparison of the Kinetics of MMF-Release of the Different Compounds of the Present Invention and DMF During Incubation in Intestinal Fluid of the Minipig
Intestinal tissue/fluid and enterocyte samples were taken from a 10 month old, female Göttingen SPF minipig. The body weight was 21 kg. The minipig was fasted for approximately 28 hours before sampling of intestinal fluid/tissues and enterocytes. On the day of sampling, the minipig was weighed and anaesthetised by an intramuscular injection in the neck or in the left hind leg (about 0.3 ml per kg body weight) of a mixture of Zoletil 50 Vet., Virbac, France (125 mg tiletamine and 125 mg zolazepam), Rompun Vet., Bayer, Germany (20 mg xylazine/ml, 6.5 ml), Ketaminol Vet., Veterinaria AG, Switzerland (100 mg ketamine/ml, 1.5 ml) and Methadon DAK, Nycomed Danmark, Denmark (10 mg methadon/ml, 2.5 ml). The animal was killed by exsanguination before sampling of intestinal fluid. An intestinal segment was ligated at both ends before removal. The isolated tissue was placed in isotonic saline and opened by a longitudinal cut for sampling of intestinal fluid.
The intestinal tissue from each segment was transferred into a Centrifuge Tube, immersed in 10 ml 50 mM phosphate buffer, pH 6.8 and frozen at −70° C.
• Instrument: Acquity UPLC system coupled with a TQ detector (triple quadruple mass spectrometer) UPLC Method: Column: Phenomenex Kinetex C18, 100 A, 2.6 μm (150×4.6 mm) flow: 0.4 ml/min split: appr. 100 μl/min to MS Temperature: 30° C. solvent system (isocratic): • Solvent A 25% water with 0.1% acetic acid • Solvent B 75% methanol with 0.1% acetic acid stoptime: 6 min autosampler temperature: 8° C. injection volume: 4 μl retention time: MN/IF: 4.3 min • MEF: 4.7 min Mass Spectrometry software: Masslynx 4.1 detection mode: electrospray/negative ions (ESP−) capillary voltage: 2.3 kV source temperature: 100° C. desolvation temperature: 450° C. cone voltage: 18 V desolvation gas: N2 650 L/h cone gas: N2, 20 L/h collision gas: argon, appr. 3.3*10^−3 mbar collision energy: 11 eV MRM [m/z]: 128.94>85.03 Monomethylfumarate dwell: 200 msec • 142.99>99.06 Monoethylfumarate (ISTD) dwell: 200 msec 7.2.1.2 Stock and Calibration Solutions
Stock (SS), working (WS) and calibration solutions of the analyte monomethyl fumarate (MMF) and the internal standard (ISTD) […] (MEF) were prepared as described below. • SSMMF: In a 10 ml volumetric flask, 6.5 mg MMF (Batch: MKRJ0642V/Aldrich) were dissolved in methanol and made up to volume (c=650 μg/ml) • SSISTD: In a 100 ml volumetric flask, 10 mg MEF (Batch: STBC5219V/Aldrich) were dissolved in methanol and made up to volume (c=100 μg/ml) • WSISTD: 100 μl SSISTD were transferred into a 10 ml volumetric flask and made up to volume with acetonitrile (c=1,000 ng/ml);
Calibration solutions were prepared by serial dilution of SSMMF; diluted small intestinal fluid (diluted by 1/20 v/v with 50 mM KH2PO4, pH 6.8; (dil IF) was used as matrix. The dilution scheme is given below:
50 μl sample (calibration solution or sample of an incubation experiment with MMF prodrugs) was mixed with 50 μl WSISTD, 20 μl formic acid and 100 μl acetonitrile. This mixture was vortexed for 15 sec and centrifuged (13,000 rpm, 3 min). Thereafter, 4 μl of the supernatant were subjected to LC-MS analysis.
Stock solutions were prepared in DMSO or, for one compound, in DMSO with 10% (v/v) water. Concentrations in stock solutions were […] for compounds with one, two and three molar MMF equivalents.
In a HPLC glass vial, 8 μl of stock solution were mixed with 792 μl dil IF and the mixture was stirred (250 rpm) in a water bath (T=37° C.).
Immediately after mixing as well as at t=15 min, 30 min, 60 min, 90 min and 120 min, 50 μl were withdrawn and prepared for LC-MS analysis as described in chapter. 2.1.3. […]

[2] = tested on: MOG35-55-induced experimental autoimmune encephalomyelitis (EAE); assay: MOG35-55-induced experimental autoimmune encephalomyelitis (EAE) in C57BL/6 mice; type: in vivo; conditions: for body weight: prophylactic oral treatment from day 1, observation day 1-13 (FIG. 2); for development of clinical symptoms (clinical score): prophylactic oral treatment from day 1, observation day 1-13, 11.54 mM dose formulation, 10 ml/kg (FIG. 3)
Source text: Assessment and comparison of the efficacy of compounds of the invention and DMF (reference) in MOG35-55-induced experimental autoimmune encephalomyelitis (EAE) in C57BL/6 mice: • Test system: male C57BL/6 mice, 12 weeks old; 10 animals per treatment group; • Induction of EAE: Day −1—subcutaneous injection of MOG35-55, suspended in complete Freund's adjuvans and intraperitoneal injection of pertussis toxin. • Day 3—intraperitoneal injection of pertussis toxin. • Treatment: Dimethylfumarate and test substances or vehicle only were administered via oral route. Test substances were dissolved or suspended in 0.5% hydroxyethylcellulose (dissolved in 50 mM potassium dihydrogenphosphate, pH 5.0). Drug concentration in dose formulations: 11.54 mM; • Dose volume: 10 ml/kg body weight; • Start of treatment: Day 1 • Observations (clinical Observations were recorded daily between day 1 and 13. score and body weight): • Clinical score: grade 0-10; 0 (=no impairments), 1 (normal movement; limp tail: proximal ⅔ of the tail is limp and droopy), 2 (normal movement; whole tail is limp; 3 (wobbly walk; absent righting reflex), 4 (gait ataxia), 5 (mild paraparesis), 6 (moderate paraparesis), 7 (severe paraparesis or paraplegia), 8 (tetraparesis), 9 (moribund), 10 (death).

Caco-2 monolayers = assay: in vitro
Method: (§1) The membrane permeability was investigated in Caco-2 monolayers. DMF was investigated in a separate experiment for comparison.
(§2) Based on the assumption that in vivo, the intact molecules will be pre-systemically metabolized, the permeability test was performed only in the apical→basolateral direction. The test concentration in the apical medium was 250 μM. […] Sampling time points were 15, 45 and 90 min.

[3] = In vivo pharmacokinetics of MMF after oral administration in NMRI mice; conditions: female, mouse, 65.3 mg/kg
Method: The pharmacokinetics of MMF after administration of the compound of Example 1 and DMF for comparison was investigated in female NMRI mice (3 animals per group). The test compound was dissolved in DMSO/PEG300 (20/80) and administered p.o. (gavage) at a dose volume of 10 ml/kg. DMF was given at a dose of 45 mg/kg. The test compound was dosed at a MMF-equivalent dose, i.e. 65.3 mg/kg. Blood samples were taken at 0.25, 0.5, 1.0, 2.0, 4.0, 6.0 and 8.0 h after drug administration.
Pharmacokinetic parameters, derived by non-compartmental analysis for test compound (Example 1): […]

in vitro = conditions: human, Caco-2
Method: as §1, §2

Compound	body weight [2]	development of clinical symptoms (clinical score) [2]	permeability category compared to the reference molecules (Caco-2 monolayers; Caco-2)	release of the second equivalent of MMF [1]	release kinetics of the first equivalent of MMF [1]	further results
COC(=O)/C=C/C(=O)OC(C)OC(=O)/C=C/C(=O)OC [(E)-But-2-enedioic acid 1-((E)-3-methoxycarbonyl-acryloyloxy)-ethyl ester methyl ester, reference compound]	–	–	–	–	–	release kinetics of MMF ([1]; incubation in intestinal fluid of the minipig, compared with DMF (FIG. 8)): considerable faster than that of DMF
COC(=O)/C=C/C(=O)OC [DMF, Dimethyl fumarate]	remained stable	protected from the development of clinical symptoms	moderate permeability	–	–	Recovery [%] mean ± s.d. (Caco-2 monolayers; Caco-2): 11.6 ± 1.0%; Papp × 10^−6 [cm/sec] mean ± s.d. (Caco-2 monolayers; human, Caco-2, 250 μM): 1.8 ± 0.2 10^−6 cm/sec
COC(=O)/C=C/C(=O)OCCOCCOCCOCCOC(=O)/C=C/C(=O)OC [Example 1, (E)-But-2-enedioic acid 2-(2-{2-[2-((E)-3-methoxycarbonyl-acryloyl-oxy)-ethoxy]-ethoxy}-ethoxy)-ethyl ester methyl ester]	remained stable	protected from the development of clinical symptoms	moderate permeability	released more slowly	essentially identical to that of DMF	AUC(0-inf) [3]: 5990 ng·h/mL; Papp A→B at 250 μM (in vitro): 1 ± 0.1 ×10⁻⁶ cm/s; recovery at 90 min, 250 µM (in vitro): 17.1%
COC(=O)/C=C/C(=O)OCCOCCOCCOC(=O)/C=C/C(=O)OC [Example 2, (E)-But-2-enedioic acid 2-{2-[2-((E)-3-methoxycarbonyl-acryloyl-oxy)-ethoxy]-ethoxy}-ethyl ester methyl ester]	–	–	–	released more slowly	essentially identical to that of DMF	–
COC(=O)/C=C/C(=O)OCCOCCOC(=O)/C=C/C(=O)OC [Example 3, (E)-But-2-enedioic acid 2-[2-((E)-3-methoxycarbonyl-acryloyloxy)-ethoxy]-ethyl ester methyl ester]	–	–	–	released more slowly	essentially identical to that of DMF	–
C[C@]12CC[C@H]3[C@@H](CCC4=CC(=O)CC[C@@]43C)[C@@H]1CC[C@@H]2O [Testosterone, testosterone]	–	–	–	–	–	Recovery [%] mean ± s.d. (Caco-2 monolayers; direction a-b): 67.3 ± 1.2% and 62.5 ± 2.1%; Recovery [%] mean ± s.d. (Caco-2 monolayers; direction b-a): 94.9 ± 0.9% and 76.1 ± 4.5%
